Measurements: paper PMC11994961, “In Vivo pharmacokinetic interactions of ribociclib with rivaroxaban and apixaban in rats: implications for increased drug exposure and dose adjustments” (Frontiers in Pharmacology, 2025)
Where two headings read alike, the source gives them in different places. Values belong to the molecule of their own block, whether it stands above or below them.

Columns and labels:
[1] = parameters: method as in Samant et al., 2020; details: ref Samant et al., 2020, cited from earlier work
[2] = parameters: method as in Hindley et al., 2023; details: ref Hindley et al., 2023; cited from earlier work
[3] = Pharmacokinetic study of rivaroxaban in rats, alone and with ribociclib (UPLC-MS/MS plasma levels); type: in vivo, Sprague-Dawley rats; details: for CL/F: read-out: CLz/F (converted); for MRT inf: read-out: MRT0- ∞; for MRT last: read-out: MRT0-t; for Vd/F: read-out: Vz/F
Method: Experimental animals were randomly divided into nine groups (n = 6, Table 1). Ribociclib was suspended in methylcellulose (MC), rivaroxaban was prepared in hydroxypropyl methylcellulose (HPMC), and apixaban was suspended in 5% DMSO in water. To achieve steady-state blood concentrations, a drug typically requires five to seven half-lives. Based on this principle, ribociclib was administered orally for eight consecutive days, while rivaroxaban and apixaban were administered orally for five consecutive days to ensure steady-state concentrations were reached before further analysis.
Approximately 0.1 mL of blood was collected into heparinized tubes via the orbitalat specified time points before and after the final drug administration. For apixaban, blood samples were collected at 0, 0.083, 0.167, 0.25, 0.333, 0.5, 0.75, 1, 3, 5, 7, 10, and 12 h. For rivaroxaban, sampling was conducted at 0, 0.167, 0.333, 0.5, 0.75, 1.5, 2, 3, 4, 5, 6, 8, 10, 12, and 24 h. For ribociclib, samples were taken at 0, 0.5, 1, 2, 4, 5, 6, 8, 10, 12, 24, and 48 h. Blood samples were centrifuged at 3,500 rpm for 10 min, and the supernatant was collected and stored at −80°C until processing for UPLC-MS/MS.
Apixaban and rivaroxaban concentrations in plasma samples were determined using our previously established UPLC-MS/MS method ([Wang et al., 2023]). Ribociclib concentrations were quantified using an LC-30A UPLC system (Shimadzu, Kyoto, Japan) coupled with a Sciex Triple Quad 5500 tandem quadrupole mass spectrometer (AB Sciex, Framingham, MA, United States) equipped with an electrospray ionization interface. Chromatographic separation was performed using a Welch Boltimate column (2.1 mm × 100 mm, 2.7 μm) maintained at 40°C. The mobile phase was composed of water containing 0.1% formic acid (phase A) and acetonitrile (phase B). The flow rate was held constant at 0.3 mL/min. The gradient elution protocol was as follows: 0–2.5 min, 60% B; 2.5–3.5 min, 60%–90% B; 3.5–5.5 min, 90% B; 5.5–5.6 min, 90%–60% B; 5.6–6.6 min, 60% B. The injection volume was 1 μL.
Pharmacokinetic parameters were calculated based on a non-compartmental model using DAS 2.1.1 Software (Mathematical Pharmacology Professional Committee of China, Shanghai, China). The area under the concentration–time curve (AUC), maximum plasma concentration (Cmax), time to maximum plasma concentration (Tmax), the time required to eliminate half of the plasma drug concentration (t1/2), clearance of drug plasma volume per unit time (CLz/F), apparent volume distribution (Vz/F), mean residence time (MRT) and the absorption rate constant (Ka) are all expressed as mean ± standard deviation (SD). SPSS 25.0 statistical software (SPSS Inc., Chicago, IL, United States) was applied to statistically analyze the mainpharmacokinetic parameters. Shapiro-Wilk test was used to assess whether the data were normally distributed, t test was used for parameters conforming to the normal distribution, and Mann-Whitney U test was used for parameters not conforming to the normal distribution. Statistical comparisons were conducted using a analysis of variance, t-test or nonparametric rank-sum test depending on the data type. A P-value <0.05 was deemed statistically significant.

[4] = RIVA 1 mg/kg + multiple doses of RIBO vs RIVA 2 mg/kg alone
[5] = RIVA 2 mg/kg (normal dose) + multiple doses of RIBO vs alone
[6] = RIVA 2 mg/kg + timed RIBO (12 h), RIBO 60 mg/kg for 8 days
[7] = RIVA 2 mg/kg after multiple doses of RIBO vs RIVA 2 mg/kg alone
[8] = RIVA 2 mg/kg with 12-h interval to RIBO vs RIVA 2 mg/kg alone
[9] = Sprague-Dawley, rat, plasma, po, 1 mg/kg, RIVA 1 mg/kg + RIBO 60 mg/kg for 8 days
[10] = Sprague-Dawley, rat, plasma, po, 2 mg/kg, RIVA 2 mg/kg + RIBO 60 mg/kg for 8 days
[11] = Sprague-Dawley, rat, plasma, po, 2 mg/kg, RIVA 2 mg/kg + timed RIBO (12 h), RIBO 60 mg/kg for 8 days
[12] = Sprague-Dawley, rat, plasma, po, 2 mg/kg, oral RIVA 2 mg/kg alone

Compound: CN(C)C(=O)c1cc2cnc(Nc3ccc(N4CCNCC4)cn3)nc2n1C1CCCC1 [RIBO, ribociclib]
reduction of AUC ([1]; with rifampicin, a strong CYP3A inducer): 89% | increase of AUC ([1]; with ritonavir, a strong CYP3A inhibitor): 3.2 fold

decrease of CLz/F [3, 4]: 70.97% | decrease of Vz/F [3, 4]: 78.29% | difference in MRT0- ∞ [3, 4]: not statistically significant | difference in Tmax [3, 4]: not statistically significant | increase of AUC0- ∞ [3, 4]: 228.46% | increase of AUC0-t [3, 4]: 230.62% | increase of Cmax [3, 4]: 133.14% | increase of MRT0-t [3, 4]: 30.06% | increase of AUC0- ∞ [3, 5]: ~2.1 fold | increase of AUC0-t (AUC) [3, 5]: about 2.4 fold | increase of Cmax [3, 5]: 1.9 fold | Cmax ([3]; RIVA 2 mg/kg + RIBO 60 mg/kg for 8 days): 838.33 ± 480.92 ng/mL | AUC0- ∞ [3, 6]: 2,217.15 ± 800.81 μg/L*h | Cmax [3, 6]: 454.5 ± 214.88 ng/mL | Vz/F [3, 6]: 3.72 ± 1.98 L/kg | t1/2 [3, 6]: 2.65 ± 1.48 h | decrease of CLz/F [3, 7]: 65.81% | decrease of Vz/F [3, 7]: 82.91% | decrease of t1/2z [3, 7]: 57.09% | difference in MRT0- ∞ [3, 7]: not statistically significant | difference in Tmax [3, 7]: not statistically significant | increase of AUC0- ∞ [3, 7]: 213.79% | increase of AUC0-t [3, 7]: 240.19% | increase of Cmax [3, 7]: 186.93% | increase of MRT0-t [3, 7]: 21.39% | decrease of CLz/F [3, 8]: 34.84% | decrease of Vz/F [3, 8]: 62.61% | difference in Cmax [3, 8]: not statistically significant | difference in MRT0- ∞ [3, 8]: not statistically significant | difference in Tmax [3, 8]: not statistically significant | increase of AUC0- ∞ [3, 8]: 63.03% | increase of AUC0-t [3, 8]: 74.16% | increase of MRT0-t [3, 8]: 22.54% | Cmax ([3]; Sprague-Dawley, rat, plasma, oral RIVA 2 mg/kg alone, read-out: Cmax): 292 ± 67.5 ng/mL | AUC(0-inf) [3, 9]: 4470 ng·h/mL | AUC(0-t) [3, 9]: 3990 ± 445 ng·h/mL | Tmax [3, 9]: 1.92 ± 0.2 h | half-life [3, 9]: 3.34 ± 0.79 h | CL/F [3, 9]: 7.5 mL/min/kg | MRT inf [3, 9]: 5.84 ± 0.81 h | MRT last [3, 9]: 4.5 ± 0.25 h | Vd/F [3, 9]: 2.16 ± 0.04 L/kg | AUC(0-inf) [3, 10]: 4270 ng·h/mL | AUC(0-t) [3, 10]: 4100 ng·h/mL | Tmax [3, 10]: 2.83 ± 0.41 h | half-life [3, 10]: 2.15 ± 0.94 h | CL/F [3, 10]: 8.83 mL/min/kg | MRT inf [3, 10]: 4.74 ± 0.63 h | MRT last [3, 10]: 4.2 ± 0.63 h | Vd/F [3, 10]: 1.7 ± 0.99 L/kg | AUC(0-t) [3, 11]: 2100 ng·h/mL | Tmax [3, 11]: 3 ± 0.63 h | CL/F [3, 11]: 16.8 mL/min/kg | MRT inf [3, 11]: 4.93 ± 1.3 h | MRT last [3, 11]: 4.24 ± 0.69 h | AUC(0-inf) [3, 12]: 1360 ng·h/mL | AUC(0-t) [3, 12]: 1210 ng·h/mL | Tmax [3, 12]: 2.13 ± 0.83 h | half-life [3, 12]: 5.01 ± 3.3 h | CL/F [3, 12]: 25.8 mL/min/kg | MRT last [3, 12]: 3.46 ± 0.43 h | Vd/F [3, 12]: 9.95 ± 4.58 L/kg | Cmax ([3]; Sprague-Dawley, rat, plasma, po, RIVA 1 mg/kg + RIBO 60 mg/kg for 8 days, read-out: Cmax): 681 ± 75.5 ng/mL | AUC at 1 mg/kg versus AUC at 2 mg/kg ([3]; both with multiple doses of RIBO): not significantly different | MRT0- ∞ ([3]; oral RIVA 2 mg/kg alone): 5.31 ± 2.01 h | increase of Cmax ([3]; reduced RIVA 1 mg/kg + multiple doses of RIBO): 1.3 fold
Compound: O=C(NC[C@H]1CN(c2ccc(N3CCOCC3=O)cc2)C(=O)O1)c1ccc(Cl)s1 [RIVA, rivaroxaban]
plasma protein binding [2]: approximately 95%
